One data set concerns platelets. The conditions noted are these: cited from earlier work.
Data set [1] in a line: Terminal half-life of mavorixafor. The conditions noted are these: in vivo.
A further data set relates to HS-27A and HS-5 BMSCs. In words: Apoptosis of BMSCs cocultured with WM cells. Format: cell-based. Conditions: WM cell-BMSC coculture, mavorixafor alone (FIG. 11A-B). The procedure:
BMSCs were cultured in 96-, 48-, or 24-well plates until 90% confluence. […] Cells were coincubated for 48 or 72 hours followed by measurement of cell viability, apoptosis, IgM, and IL-6 release. Cells were washed with PBS, resuspended in Annexin V binding buffer (BioLegend, #422201), and stained with Alexa Fluor® 647 Annexin V (BioLegend, #640943), propidium iodide (BD Pharmingen, #51-66211E), and CD45 antibody (BioLegend, #368502) for 15 minutes at room temperature and analyzed by flow cytometry.

Data set [2] deals with MWCL-1 cells. Briefly: Adhesion assay of MWCL-1 cells to BMSC monolayer. Format: cell-based. The conditions noted are these: pretreatment, 4 hours (FIG. 3A). The procedure: MWCL-1 cells were labeled with 1 μM Calcein AM. After 10 minutes at 37° C., cells were washed, resuspended in medium containing 1% FBS, and treated with compounds for 30 minutes (2.25× 10^5 cells/mL). MWCL-1 cells were transferred to the BMSC monolayer. After 4 hours, nonadherent cells were removed by gently washing with phosphate-buffered saline (PBS). Remaining cells were harvested, resuspended in flow buffer (Hanks balanced salt solution+20 mM HEPES+0.5% […]) and analyzed by flow cytometry.

In another data set the test system is ALL cells. The conditions noted are these: cited from earlier work.
A further data set relates to WM cell-BMSC coculture. In words: IL-6 release in WM/BMSC coculture model (ELISA). It counts as cell-based. Conditions: WM cell-BMSC coculture (FIG. 12). The procedure:
(§1) BMSCs were cultured in 96-, 48-, or 24-well plates until 90% confluence. […] Cells were coincubated for 48 or 72 hours followed by measurement of cell viability, apoptosis, IgM, and IL-6 release. The IgM levels were quantitated using a human IgM Enzyme-linked immunosorbent assay (ELISA) kit (Abcam, #ab214568) according to the manufacturer's instructions. IL-6 levels were quantitated using an IL-6 ELISA MAX™ kit (BioLegend, #430515) per manufacturer's recommendations. For all ELISA kits, plates were developed with 3,3′,5,5′-tetramethylbenzidine (TMB) development solution or a biotinylated antihuman IL-6 detection antibody/avidin horseradish peroxidase (HRP) solution. The reaction was stopped with the stop solution, and absorbance was read at 450 nm with a microplate reader (Synergy™ HT, BioTek Instruments).

Data set [3] relates to MWCL-1 cells. Briefly: Cell viability of MWCL-1 cells (CellTiter-Glo). Format: cell-based. Conditions: tested concentrations, 4 hours, data not shown.
Data set [4] has as its system cleavage of caspase-3 and PARP in MWCL-1 cells. In words: Immunoblotting of apoptotic markers. Format: cell-based. Conditions: MWCL-1 monoculture (FIG. 4G). The procedure:
Whole cells were lysed by radioimmunoprecipitation assay (RIPA) lysis buffer (Sigma-Aldrich, #R0278) with protease inhibitor cocktail (Roche Custom Biotech, #11697498001). Lysates were separated by sodium dodecyl sulfate polyacrylamide gel-electrophoresis (SDS-PAGE) electrophoresis and transferred to Trans-Blot® Turbo™ Mini PVDF Transfer Packs (Bio-Rad). Membranes were incubated with primary antibodies: anti-poly adenosine diphosphate (ADP)-ribose polymerase (PARP) (1:1000, Cell Signaling, #9542); Anti-Caspase 3 (1:1000, Cell Signaling, #9662) and antitubulin (1:5000, R&D, #MAB9344). Secondary HRP-conjugated antibodies (Abcam) were used at 1:10.000 dilution. Membranes were developed with enhanced chemiluminescence reagent (Amersham™ ECL Prime Western Blotting Detection Reagent, GE Healthcare) on LAS4000 gel documentation system.
A general note: In western blotting, separated proteins are transferred to a membrane and probed.

In data set [5] the test system is MWCL-1 cells. In words: BMSC-induced IgM hypersecretion, MWCL-1/HS-27A coculture (ELISA). Format: cell-based. The procedure: as §1
(In general: ELISA stands for enzyme-linked immunosorbent assay.)

Data set [6] can be described thus: Solubility of mavorixafor. Format: physicochemical.
The test system of data set [7] is MWCL-1 cells. Briefly: Apoptosis of MWCL-1 cells in coculture with HS-27A BMSCs. Conditions: HS-27A BMSC coculture (FIG. 5A-F). Format: cell-based. The procedure:
BMSCs were cultured in 96-, 48-, or 24-well plates until 90% confluence. MWCL-1 cells (density≈2×10^5 cells/mL) were pretreated with indicated concentration of mavorixafor together with indicated concentrations of B-cell-targeted inhibitors in medium containing 4% FBS for 1 hour and transferred to the BMSC monolayer. Cells were coincubated for 48 or 72 hours followed by measurement of cell viability, apoptosis, IgM, and IL-6 release.
(§2) Cells were washed with PBS, resuspended in Annexin V binding buffer (BioLegend, #422201), and stained with Alexa Fluor® 647 Annexin V (BioLegend, #640943), propidium iodide (BD Pharmingen, #51-66211E), and CD45 antibody (BioLegend, #368502) for 15 minutes at room temperature and analyzed by flow cytometry.

For data set [8] the following is noted: patients with WHIM syndrome; cited from earlier work.
Data set [9] deals with CXCL12-induced Ca2+ mobilization in MWCL-1 cells. Briefly: Calcium mobilization assay (Fluo-4 AM). Format: cell-based. The conditions noted are these: dose-dependent (FIG. 3D). The procedure:
MWCL-1 cells (2×10^5 cells/well) were seeded in transparent bottom, black 96-well plates coated with poly-L-lysine (BioCoat®, Corning) and serum-starved (medium with 1% FBS) for 24 hours. Medium was removed and cells were loaded with 100 μL of fluo-4 AM (3 μM, Invitrogen, #F14201) dye solution for 45 minutes at 37° C. Subsequently, 100 μL of assay buffer alone or assay buffer with compound dilutions was added, and the plates were equilibrated in the plate reader for an additional 20 minutes at 37° C. The CXCL12 was injected with simultaneous measurement of fluorescent signal (FlexStation® 3 Multi-Mode Microplate Reader, Molecular Devices). Raw traces were analyzed in SoftMax®Pro 7 Software (Molecular Devices). The arbitrary units were calculated as the difference between maximal and minimal signal after treatment injection, normalized to the baseline signal before injection.
For orientation: Calcium assays in cells follow changes in intracellular calcium, usually with a dye or a luminescent sensor.

Data set [10] concerns MWCL-1 cells. Briefly: Apoptosis of MWCL-1 cells in monoculture (Annexin V flow cytometry). It counts as cell-based. The procedure:
BMSCs were cultured in 96-, 48-, or 24-well plates until 90% confluence. […] Cells were coincubated for 48 or 72 hours followed by measurement of cell viability, apoptosis, IgM, and IL-6 release.
as §2

Data set [11] concerns MWCL-1 cells. In words: Transwell migration assay. Format: cell-based. The procedure: Cell migration toward CXCL12 gradient or BMSC monolayer was determined using the Transwell migration assay. MWCL-1 cells were stained with 500 nM Calcein AM (Invitrogen, #C1430) and preincubated with mavorixafor for 15 minutes before transfer (5×10^5 cells) to an upper well of a […] pore size Transwell® (Corning, #3421). […] Wells without CXCL12 were treated with 10 μM LIT-927 (Selleck Chemicals, #S8813), a neutraligand of CXCL12, to serve as background control. After 4 hours of incubation, cells that migrated to the lower chambers were collected and resuspended in Dulbecco's phosphate-buffered saline (DPBS) containing Precision Count Beads™ (BioLegend, #424902). Migrated cells and counting beads were counted by flow cytometry

Another data set has as its target T1, BTK (Homo sapiens, UniProt Q06187).
T1 construct: endogenous in cells
The conditions noted are these: patients with relapsed/refractory CLL and other B-cell disorders; cited from earlier work.

A further data set concerns the target T2, BCL-w (Homo sapiens, UniProt Q92843).
T2 sequence (Q92843 1-193): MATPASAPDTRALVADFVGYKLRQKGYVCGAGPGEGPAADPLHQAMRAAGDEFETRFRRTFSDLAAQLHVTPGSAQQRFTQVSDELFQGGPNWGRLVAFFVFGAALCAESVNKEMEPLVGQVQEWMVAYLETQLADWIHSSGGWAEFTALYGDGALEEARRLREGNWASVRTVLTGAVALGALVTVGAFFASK
Conditions: cited from earlier work.

The target of another data set is BCL-XL (Homo sapiens, UniProt Q07817). The conditions noted are these: cited from earlier work.
Chain of BCL-XL (Q07817 whole entry): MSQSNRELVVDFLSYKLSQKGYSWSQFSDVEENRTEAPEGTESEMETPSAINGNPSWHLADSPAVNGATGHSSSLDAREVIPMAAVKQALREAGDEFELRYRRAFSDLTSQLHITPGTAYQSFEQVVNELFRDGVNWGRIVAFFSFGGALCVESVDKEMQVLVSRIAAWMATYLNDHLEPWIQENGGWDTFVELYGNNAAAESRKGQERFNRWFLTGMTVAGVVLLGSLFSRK
The test system of data set [12] is small-cell lung cancer and hematologic cell lines. The conditions noted are these: in vivo; cited from earlier work.
The target in a further data set is MCL-1 (Homo sapiens, UniProt Q07820). Conditions: cited from earlier work.
Chain of MCL-1 (Q07820 whole entry): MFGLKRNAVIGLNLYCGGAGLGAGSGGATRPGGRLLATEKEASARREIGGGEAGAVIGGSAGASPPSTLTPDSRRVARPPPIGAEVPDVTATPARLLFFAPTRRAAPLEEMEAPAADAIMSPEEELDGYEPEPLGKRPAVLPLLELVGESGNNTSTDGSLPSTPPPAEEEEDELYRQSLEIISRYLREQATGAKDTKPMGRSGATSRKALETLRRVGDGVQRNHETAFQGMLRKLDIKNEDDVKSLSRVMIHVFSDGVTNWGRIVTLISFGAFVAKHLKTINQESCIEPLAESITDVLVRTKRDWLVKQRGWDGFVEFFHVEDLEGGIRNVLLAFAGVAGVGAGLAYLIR
The target in the next data set is T3, A1 (Homo sapiens, UniProt Q16548).
T3 sequence (Q16548 1-175): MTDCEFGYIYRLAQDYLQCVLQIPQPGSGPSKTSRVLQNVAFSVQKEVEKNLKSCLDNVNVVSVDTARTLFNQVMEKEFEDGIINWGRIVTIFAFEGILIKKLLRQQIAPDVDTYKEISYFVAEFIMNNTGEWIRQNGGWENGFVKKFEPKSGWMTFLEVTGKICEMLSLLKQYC
The conditions noted are these: cited from earlier work.

The target of the next data set is BCL-2 (Homo sapiens, UniProt P10415). Conditions: cited from earlier work.
Chain of BCL-2 (P10415 whole entry): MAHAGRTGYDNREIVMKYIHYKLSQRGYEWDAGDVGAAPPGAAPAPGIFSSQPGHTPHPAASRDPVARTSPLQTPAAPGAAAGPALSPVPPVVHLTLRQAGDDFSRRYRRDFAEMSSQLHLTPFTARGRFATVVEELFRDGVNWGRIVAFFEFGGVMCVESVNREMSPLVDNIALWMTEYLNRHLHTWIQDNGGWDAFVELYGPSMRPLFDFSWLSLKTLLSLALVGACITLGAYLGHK

This is an account of results in US20250361307A1, “COMBINATION THERAPIES FOR TREATING HYPERPROLIFERATIVE DISORDERS” (X4 Pharmaceuticals, Inc., priority 2022, published 2025).

A value given as a limit tells only on which side of the number the result lay.

T1 sequence (Q06187 whole entry): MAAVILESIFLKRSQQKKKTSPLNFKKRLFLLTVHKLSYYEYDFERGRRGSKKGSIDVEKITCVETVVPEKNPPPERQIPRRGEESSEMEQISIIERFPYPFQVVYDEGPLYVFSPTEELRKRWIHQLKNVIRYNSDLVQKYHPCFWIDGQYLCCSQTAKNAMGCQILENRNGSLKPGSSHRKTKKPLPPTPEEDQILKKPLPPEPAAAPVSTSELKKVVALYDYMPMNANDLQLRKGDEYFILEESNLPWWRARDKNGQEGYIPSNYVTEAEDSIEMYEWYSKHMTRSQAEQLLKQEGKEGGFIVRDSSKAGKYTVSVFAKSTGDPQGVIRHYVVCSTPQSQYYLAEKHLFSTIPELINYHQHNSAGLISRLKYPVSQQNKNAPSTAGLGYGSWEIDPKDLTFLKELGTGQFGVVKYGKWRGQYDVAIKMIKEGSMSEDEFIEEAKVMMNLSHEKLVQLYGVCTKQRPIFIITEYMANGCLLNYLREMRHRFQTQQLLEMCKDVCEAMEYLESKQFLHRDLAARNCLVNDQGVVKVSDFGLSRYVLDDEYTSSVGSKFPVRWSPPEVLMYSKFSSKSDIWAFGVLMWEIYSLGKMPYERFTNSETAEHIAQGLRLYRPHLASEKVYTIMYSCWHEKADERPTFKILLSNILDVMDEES

As for `CC1(C)CCC(CN2CCN(c3ccc(C(=O)NS(=O)(=O)c4ccc(NCC5CCOCC5)c([N+](=O)[O-])c4)c(Oc4cnc5[nH]ccc5c4)c3)CC2)=C(c2ccc(Cl)cc2)C1` [venetoclax], the platelet numbers result in the data set with platelets is “little effect”.
What is called half-life is the time needed for the level to fall by half in the phase considered. The solubility is how much of the substance goes into solution per volume. Read a high solubility as a readily soluble substance. Compound `NCCCCN(Cc1nc2ccccc2[nH]1)[C@H]1CCCc2cccnc21` [Mavorixafor] gave a half-life in [1] of 12 to 24 h. The “apoptosis of BMSCs” value in the data set on HS-27A and HS-5 BMSCs is “much weaker effects”. Besides, the “adhesion of WM cells to BMSCs” value in the data set with MWCL-1 cells [2] was “dose-dependent decrease”. In the data set on ALL cells, the “CXCL12-induced signaling pathway in ALL cells” value was “effectively block”; the “preestablished adhesion of ALL cells to stroma” value is “disrupt”; the “sensitivity of ALL cells to vincristine and nilotinib” value is recorded as “increase sensitivity”; the “stromal-induced migration of ALL cells” value was “block”. Also, the IL-6 release result in the data set on WM cell-BMSC coculture was “no significant effect”. In the data set with MWCL-1 cells [3], the “cytotoxicity in MWCL-1 cells” value is reported as “not sufficient to induce cytotoxicity”. In [4], the “proteolytic cleavage of caspase-3 and PARP” value was “minor effects”. Moreover, the “BM stroma-induced IgM hypersecretion, combination with ixazomib” value in the data set with MWCL-1 cells [5] (BMSC: HS-27A cells, 72 hours (FIG. 16)) is on record as “Synergizes”. In addition, in the data set on MWCL-1 cells [5] (HS-27A coculture, 48 or 72 hours (FIG. 6A-G)), the “BMSC-induced IgM hypersecretion” value was “inhibited”. In addition, the solubility in data set [6] (aqueous buffer, pH range 3.0 to 8.0) is over 100 mg/mL. In data set [6] (water), the “Solubility in water” value is recorded as “only slightly soluble”. In addition, in the data set on MWCL-1 cells [7], the “sensitivity of MWCL-1 cells to apoptosis by B-cell-targeted inhibitors in presence of BMSCs” value was “restored the sensitivity”. For the same compound, the “tolerability, treatment-related serious adverse events” value in data set [8] was “well tolerated, with no treatment-related serious adverse events”. Also, in data set [9], the “CXCL12-mediated Ca2+ mobilization” value is given as “blocked”. The “apoptosis efficacy of ixazomib when mavorixafor is added” value with MWCL-1 cells [10] (absence of bone marrow stroma, 72 hours (FIG. 15)) is “Enhances”. Besides, the “apoptosis of MWCL-1 cells, single agent” value in the data set with MWCL-1 cells [10] (monoculture (FIG. 8A-F, FIG. 4A-F)) is given as “minor increase”. In the data set with MWCL-1 cells [11] (HS-27A BMSCs in lower chamber (FIG. 3C)), the “migration toward BMSC-secreted CXCL12” value is “significantly inhibited”. Further, the “migration toward a CXCL12 gradient” value in the data set with MWCL-1 cells [11] (pretreatment of MWCL-1 cells (FIG. 3B)) was “significantly inhibited”.
As to `NC(=O)c1ncc(N2CCCCC2)nc1Nc1ccc(C2CCN(C[C@H]3CCN(c4ccc5c(c4)C(=O)N(C4CCC(=O)NC4=O)C5=O)C3)CC2)cc1` (some centres unmarked) [NX-2127], the “degradation of BTK” value at BTK is “clinically meaningful degradation”.
Take `CC1(C)CCC(c2ccc(Cl)cc2)=C(CN2CCN(c3ccc(C(=O)NS(=O)(=O)c4ccc(N[C@H](CCN5CCOCC5)CSc5ccccc5)c(S(=O)(=O)C(F)(F)F)c4)cc3)CC2)C1` [navitoclax]: the “interaction with BCL-w” value at BCL-w is recorded as “high affinity”. Besides, the “interaction with BCL-XL” value on BCL-XL was “high affinity”. Besides, the tumor responses result in data set [12] is “rapid and complete tumor responses”. Further, the “activity against MCL-1” value at MCL-1 is given as “no activity”. For the same compound, the “activity against A1” value at A1 is “no activity”. In addition, the “interaction with BCL-2” value on BCL-2 was “high affinity”.
